Targets include HLA-DR DRB1*0701 (DR7) (Homo sapiens, UniProt P01903+P01911, A100R/A102G/A103Q/D57E/D86V/E43K/F76Y/K127E/L162R/M171V/P40G/Q125H/Q99D/R33Q/R42Y/R54Q/S133A/S66F/T210M/V115G/Y107V/Y59L/Y89S); HLA-DR DRB1*0802 (DR8) (Homo sapiens, UniProt P01903+P01911, A100R/A103L/A169T/F76Y/H45Y/I96F/K41T/L162R/M171V/P40S/Q125H/Q178H/Q39Y/Q99D/R218S/R42G/S66Y/V115G/W38E); HLA-DR DRB1*0301 (DR3) (Homo sapiens, UniProt P01903+P01911, A100K/A102G/A103R/A169T/F55Y/I96L/K41T/L162R/M171V/P40S/Q125H/Q178H/Q39Y/R42S/S66N/T106N/T262R/W38E/Y61H); HLA-DR DRB1*0401 (DR4) (Homo sapiens, UniProt P01903+P01911, A100K/A169T/F76Y/I96L/K127E/L162R/M171V/N62H/P40V/Q125Y/R42H/S133A/S149N/S66Y/V115G/V209L/W38E); HLA-DR DRB1*0901 (DR9) (Homo sapiens, UniProt P01903+P01911, A100R/A103E/D57H/D86V/F55Y/F60I/F76Y/I96F/K127E/L162R/M171V/P40D/Q125H/Q99R/R33Q/R42F/S133A/S66N/T210M/V115G/W38K/Y107V/Y59G/Y89S); HLA-DR DRB1*0101 (DR1) (Homo sapiens, UniProt P01903+P01911, A100R/D57E/F55L/F60I/F76Y/I96L/L162R/M171V/P40L/Q125E/R42F/V115G/Y59C).

Holding throughout (assay): biochemical
Type in all cases: binding

The target in a further test is HLA-DR DRB1*1302 (DR13) (Homo sapiens, UniProt P01903+P01911, A100E/A169T/K41T/L162R/M171V/P40S/Q125H/Q178H/Q39Y/Q99D/R42S/S66N/T262R/V115G/W38E/Y61H). The conditions noted are these: DRBI *1302.
Sequence of HLA-DR DRB1*1302 (DR13) (P01903 26-254 limits assumed, other chains not shown): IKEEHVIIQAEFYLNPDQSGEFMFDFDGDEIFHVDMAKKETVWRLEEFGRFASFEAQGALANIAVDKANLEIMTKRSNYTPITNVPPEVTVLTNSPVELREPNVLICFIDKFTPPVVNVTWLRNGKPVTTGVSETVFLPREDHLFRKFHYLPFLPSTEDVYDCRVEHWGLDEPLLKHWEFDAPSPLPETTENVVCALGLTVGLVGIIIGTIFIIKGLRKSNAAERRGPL
For a further test, the target named is HLA-DR DRB1*1501 (DR15) (Homo sapiens, UniProt P01903+P01911). The conditions noted are these: DRBI *1501.
The next test deals with HLA-DR DRB1*1101 (DR11) (Homo sapiens, UniProt P01903+P01911, A100R/A169T/A87E/I96F/K41T/L162R/M171V/P40S/Q125H/Q178H/Q39Y/Q99D/R42S/S66Y/T262R/V115G/W38E). The conditions noted are these: DRB1 *1101.
Sequence of HLA-DR DRB1*1101 (DR11) (P01903 26-254 limits assumed, other chains not shown): as above
The next test addresses HLA-DR DRB4*0101 (DR53) (Homo sapiens, UniProt P01903+P13762, G164S). The conditions noted are these: DRB4 *0101.
A further test has as its target HLA-DR DRB5*0101 (DR51) (Homo sapiens, UniProt P01903+Q30154). The conditions noted are these: DRB5 *0101.

pIC50: −log10 of the molar value. Like-named read-outs stand apart in the source and are kept apart here. No end group written: not given here.

The values below come from patent US20060079453A1, “Hla binding peptides and their uses” (priority 2002, published 2006).

Sequence of HLA-DR DRB1*0301 (DR3) (P01903 26-254 limits assumed, other chains not shown): as above

For QKQLLTNHLINTPK, the pIC50 is 5.36 at HLA-DR DRB1*0701 (DR7) (read-out: DRB1 *0701) and 4.68 on HLA-DR DRB1*0802 (DR8) (read-out: DRB1 *0802).

GGVLVNEILNHMK: the pIC50 at HLA-DR DRB1*0301 (DR3) (read-out: DRB1 *0301) is 6.15; on HLA-DR DRB1*0401 (DR4) (read-out: DRB1 *0401), 6.44; on HLA-DR DRB1*0701 (DR7) (read-out: DRB1 *0701) it was 4.53; on HLA-DR DRB1*0901 (DR9) (read-out: DRB1 *0901), 4.26.

As for SMEYKKDFLITARKP, the pIC50 on HLA-DR DRB1*0401 (DR4) (read-out: DRB1 *0401) is 7.62; at HLA-DR DRB1*0701 (DR7) (read-out: DRB1 *0701), 6.11; on HLA-DR DRB1*0802 (DR8) (read-out: DRB1 *0802), 5.05.

As to RIVYRDGNPFAVCKV, the pIC50 was 6.84 against HLA-DR DRB1*0301 (DR3); 7.72 against HLA-DR DRB1*0401 (DR4) (DRB1 *0401); 5.30 at HLA-DR DRB1*0901 (DR9) (DRB1 *0901); 6.91 at HLA-DR DRB1*1302 (DR13); 7.09 at HLA-DR DRB1*1501 (DR15).

With VLDLYPEPTDLYCYE, the pIC50 at HLA-DR DRB1*0101 (DR1) (DRB1 *0101) was 4.95; against HLA-DR DRB1*0301 (DR3), 6.92; on HLA-DR DRB1*0401 (DR4) (DRB1 *0401), 6.69; at HLA-DR DRB1*0701 (DR7) (DRB1 *0701), less than 4.14; on HLA-DR DRB1*0901 (DR9) (DRB1 *0901), less than 4.49; on HLA-DR DRB1*1101 (DR11), less than 4.82. Moreover, the pIC50 is less than 4.92 on HLA-DR DRB1*1302 (DR13), 4.67 against HLA-DR DRB1*1501 (DR15), 7.74 against HLA-DR DRB4*0101 (DR53) and less than 4.82 against HLA-DR DRB5*0101 (DR51).

As for QAISPRTLNSPAIF, the pIC50 at HLA-DR DRB1*0101 (DR1) (read-out: DRB1 *0101) was 5.71; on HLA-DR DRB1*0301 (DR3) (read-out: DRB1 *0301) it was 3.53; at HLA-DR DRB1*0401 (DR4) (read-out: DRB1 *0401), 5.21; at HLA-DR DRB1*0701 (DR7) (read-out: DRB1 *0701), 4.40; at HLA-DR DRB1*0901 (DR9) (read-out: DRB1 *0901), 3.54.

For the molecule VYDFAFADLTVVYRE, the pIC50 against HLA-DR DRB1*0101 (DR1) (DRB1 *0101) is 6.76; against HLA-DR DRB1*0701 (DR7) (DRB1 *0701) it was 5.15; at HLA-DR DRB1*0901 (DR9) (DRB1 *0901) it was 6.81; against HLA-DR DRB1*1101 (DR11), less than 4.74; against HLA-DR DRB1*1302 (DR13), less than 4.88; against HLA-DR DRB1*1501 (DR15) it was 5.02. The molecule also had a pIC50 against HLA-DR DRB4*0101 (DR53) of 4.97.

In the case of `CC[C@H](C)[C@H](N)C(=O)N[C@@H](CCCNC(=N)N)C(=O)N[C@H](C(=O)N[C@@H](CC(C)C)C(=O)N[C@@H](CCC(N)=O)C(=O)N[C@@H](CCC(=O)O)C(=O)N[C@@H](CC(C)C)C(=O)N[C@@H](CC(C)C)C(=O)N[C@@H](CCSC)C(=O)NCC(=O)N[C@@H](CO)C(=O)N[C@@H](Cc1ccccc1)C(=O)NCC(=O)N[C@H](C(=O)N[C@H](C(=O)O)C(C)C)[C@@H](C)CC)[C@@H](C)CC`, the pIC50 at HLA-DR DRB1*0101 (DR1) (DRB1 *0101) is 7.17; at HLA-DR DRB1*0301 (DR3), 4.50; at HLA-DR DRB1*0401 (DR4) (DRB1 *0401), 6.14; at HLA-DR DRB1*0701 (DR7) (DRB1 *0701), 5.70; at HLA-DR DRB1*0901 (DR9) (DRB1 *0901), 6.57; against HLA-DR DRB1*1101 (DR11), 5.10. Further, the pIC50 was 5.98 against HLA-DR DRB1*1302 (DR13), 6.53 against HLA-DR DRB1*1501 (DR15), 7.77 against HLA-DR DRB4*0101 (DR53) and less than 4.26 against HLA-DR DRB5*0101 (DR51).

As for KKNIIALLIIPPKIIA, the pIC50 on HLA-DR DRB1*0101 (DR1) (read-out: DRB1 *0101) was 7.89; on HLA-DR DRB1*0701 (DR7) (read-out: DRB1 *0701), 6.31; on HLA-DR DRB1*0802 (DR8) (read-out: DRB1 *0802) it was 6.80.

On to NHLINTPKIMPHHII, for which the pIC50 against HLA-DR DRB1*0401 (DR4) (DRB1 *0401) is 5.32; against HLA-DR DRB1*0802 (DR8) it was 5.89; on HLA-DR DRB1*1501 (DR15), 6.25; at HLA-DR DRB4*0101 (DR53), 5.79; against HLA-DR DRB5*0101 (DR51) it was 5.05.

For MNALRRLPVICSFLV, the pIC50 against HLA-DR DRB1*0101 (DR1) (DRB1 *0101) is 8.68; against HLA-DR DRB1*0401 (DR4) (DRB1 *0401) it was 7.89; at HLA-DR DRB1*0802 (DR8) it was 6.58; on HLA-DR DRB1*1501 (DR15) it was 7.44; on HLA-DR DRB4*0101 (DR53), 8.24; at HLA-DR DRB5*0101 (DR51) it was 5.59.

In the case of TYSYSFDSLFSAVKN, the pIC50 on HLA-DR DRB1*0401 (DR4) (read-out: DRB1 *0401) was 7.14; at HLA-DR DRB1*0802 (DR8) (read-out: DRB1 *0802), 5.65.

Regarding LQQMLLGTLQVVCPG, the pIC50 was 6.77 at HLA-DR DRB1*0101 (DR1) (DRB1 *0101); 5.83 against HLA-DR DRB1*0401 (DR4) (DRB1 *0401); 6.03 on HLA-DR DRB1*0701 (DR7) (DRB1 *0701); 5.77 at HLA-DR DRB1*0901 (DR9) (DRB1 *0901); less than 4.50 at HLA-DR DRB1*1101 (DR11); 6.40 against HLA-DR DRB1*1302 (DR13). The pIC50 was 5.99 against HLA-DR DRB4*0101 (DR53) and 4.53 against HLA-DR DRB5*0101 (DR51).

AVGLPSTPVHPIGYY: the pIC50 on HLA-DR DRB1*0101 (DR1) (read-out: DRB1 *0101) was 8.44; at HLA-DR DRB1*0401 (DR4) (read-out: DRB1 *0401), 5.38; at HLA-DR DRB1*0802 (DR8) (read-out: DRB1 *0802) it was 5.35.
